Reference: ChEMBL document CHEMBL4396905, “Design, synthesis and in vitro evaluation of 6-amide-2-aryl benzoxazole/benzimidazole derivatives against tumor cells by inhibiting VEGFR-2 kinase” (Eur J Med Chem, 2019)

Molecular target: T1, Vascular endothelial growth factor receptor 2 (Homo sapiens, UniProt P35968)
Experiment: Inhibition of VEGFR2 (unknown origin) using Poly (Glu, Tyr) 4:1 as substrate preincubated with substrate followed by enzyme challenge for 1 hr by ELISA
Details: not given

T1 sequence (P35968 whole entry): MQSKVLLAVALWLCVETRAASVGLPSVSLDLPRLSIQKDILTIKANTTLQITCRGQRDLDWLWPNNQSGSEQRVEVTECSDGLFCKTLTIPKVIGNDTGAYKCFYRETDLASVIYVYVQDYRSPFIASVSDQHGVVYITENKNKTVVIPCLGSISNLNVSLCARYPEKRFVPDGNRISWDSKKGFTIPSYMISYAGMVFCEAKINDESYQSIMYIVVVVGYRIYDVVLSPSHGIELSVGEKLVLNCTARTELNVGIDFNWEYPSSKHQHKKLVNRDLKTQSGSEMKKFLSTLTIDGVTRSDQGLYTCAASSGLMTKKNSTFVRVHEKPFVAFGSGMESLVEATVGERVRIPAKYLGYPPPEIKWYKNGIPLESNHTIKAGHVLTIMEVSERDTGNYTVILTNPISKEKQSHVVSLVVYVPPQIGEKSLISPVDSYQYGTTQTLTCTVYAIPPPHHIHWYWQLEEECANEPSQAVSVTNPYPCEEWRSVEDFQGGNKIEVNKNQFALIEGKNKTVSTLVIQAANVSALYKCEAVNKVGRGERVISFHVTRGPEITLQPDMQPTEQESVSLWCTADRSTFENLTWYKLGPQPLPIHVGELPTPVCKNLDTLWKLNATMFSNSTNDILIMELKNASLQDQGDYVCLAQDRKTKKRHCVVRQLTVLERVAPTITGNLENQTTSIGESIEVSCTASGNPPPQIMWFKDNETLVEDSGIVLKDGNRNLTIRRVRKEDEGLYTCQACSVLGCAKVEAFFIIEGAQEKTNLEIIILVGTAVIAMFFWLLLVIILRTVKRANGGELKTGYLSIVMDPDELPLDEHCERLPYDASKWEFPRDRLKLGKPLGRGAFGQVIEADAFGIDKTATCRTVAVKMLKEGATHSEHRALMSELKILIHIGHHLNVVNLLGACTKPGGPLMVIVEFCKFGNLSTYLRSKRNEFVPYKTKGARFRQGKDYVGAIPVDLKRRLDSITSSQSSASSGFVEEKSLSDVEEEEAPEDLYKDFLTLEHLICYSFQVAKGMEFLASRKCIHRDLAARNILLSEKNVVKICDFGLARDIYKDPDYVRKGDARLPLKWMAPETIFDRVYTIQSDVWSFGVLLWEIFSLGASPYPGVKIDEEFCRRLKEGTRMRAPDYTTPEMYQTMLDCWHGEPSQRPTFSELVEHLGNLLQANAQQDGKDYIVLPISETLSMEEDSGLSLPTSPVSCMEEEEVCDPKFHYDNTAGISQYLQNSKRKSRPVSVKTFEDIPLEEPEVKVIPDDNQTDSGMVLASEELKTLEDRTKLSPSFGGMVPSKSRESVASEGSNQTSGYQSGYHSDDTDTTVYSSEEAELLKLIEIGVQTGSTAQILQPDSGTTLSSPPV

IC50 [nM]	Structure (SMILES)
444	COc1ccc(CC(=O)Nc2ccc3oc(-c4ccccc4Cl)nc3c2)cc1
842	Cc1ccc(CC(=O)Nc2ccc3oc(-c4ccccc4Br)nc3c2)cc1
73.7	Cc1ccc(CC(=O)Nc2ccc3[nH]c(-c4ccc(Cl)cc4)nc3c2)cc1
233	Cc1ccc(CC(=O)Nc2ccc3oc(-c4ccccc4F)nc3c2)cc1

Molecular target: Epidermal growth factor receptor (Homo sapiens) (UniProt P00533)
Sequence (P00533 whole entry): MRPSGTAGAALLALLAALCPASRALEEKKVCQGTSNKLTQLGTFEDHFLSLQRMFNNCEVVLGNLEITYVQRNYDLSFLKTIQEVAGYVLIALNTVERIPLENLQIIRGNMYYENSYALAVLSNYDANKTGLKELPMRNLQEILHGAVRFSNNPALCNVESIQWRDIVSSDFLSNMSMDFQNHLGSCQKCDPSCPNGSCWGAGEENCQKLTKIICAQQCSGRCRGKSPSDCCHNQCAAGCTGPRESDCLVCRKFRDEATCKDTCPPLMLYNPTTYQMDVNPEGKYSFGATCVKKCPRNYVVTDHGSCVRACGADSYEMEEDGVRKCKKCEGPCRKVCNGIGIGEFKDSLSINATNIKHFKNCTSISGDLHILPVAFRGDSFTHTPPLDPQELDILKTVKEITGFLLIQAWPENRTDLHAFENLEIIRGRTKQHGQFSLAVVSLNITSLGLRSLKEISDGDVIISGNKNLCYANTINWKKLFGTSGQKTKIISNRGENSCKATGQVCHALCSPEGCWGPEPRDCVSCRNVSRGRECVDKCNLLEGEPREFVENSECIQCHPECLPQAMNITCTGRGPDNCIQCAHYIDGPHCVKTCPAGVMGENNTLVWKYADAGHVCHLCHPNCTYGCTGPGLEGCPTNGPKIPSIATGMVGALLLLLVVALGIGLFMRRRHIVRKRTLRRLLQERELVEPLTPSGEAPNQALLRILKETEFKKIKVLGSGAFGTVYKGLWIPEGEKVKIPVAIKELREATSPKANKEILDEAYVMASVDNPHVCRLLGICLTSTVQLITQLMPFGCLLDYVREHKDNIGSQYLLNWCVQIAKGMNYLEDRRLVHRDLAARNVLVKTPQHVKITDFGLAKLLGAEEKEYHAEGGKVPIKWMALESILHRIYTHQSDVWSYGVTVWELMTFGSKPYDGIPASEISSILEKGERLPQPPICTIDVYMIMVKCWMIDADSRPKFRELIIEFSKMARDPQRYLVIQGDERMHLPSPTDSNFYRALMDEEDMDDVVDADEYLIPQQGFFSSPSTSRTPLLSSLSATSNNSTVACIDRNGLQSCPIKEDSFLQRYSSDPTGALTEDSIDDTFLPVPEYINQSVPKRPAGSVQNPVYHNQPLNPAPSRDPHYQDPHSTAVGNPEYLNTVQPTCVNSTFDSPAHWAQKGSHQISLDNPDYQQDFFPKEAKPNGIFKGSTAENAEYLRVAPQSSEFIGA
Experiment: Inhibition of EGFR (unknown origin) using Poly (Glu, Tyr) 4:1 as substrate at 1 uM preincubated with substrate followed by enzyme challenge for 1 hr by ELISA relative to control
Details: not given

inhibition [%]	Structure (SMILES)
43.8	COc1ccc(CC(=O)Nc2ccc3oc(-c4ccccc4Cl)nc3c2)cc1
39.1	Cc1ccc(CC(=O)Nc2ccc3oc(-c4ccccc4Br)nc3c2)cc1
48.3	Cc1ccc(CC(=O)Nc2ccc3[nH]c(-c4ccc(Cl)cc4)nc3c2)cc1
39.5	Cc1ccc(CC(=O)Nc2ccc3oc(-c4ccccc4F)nc3c2)cc1

Test system: HUVEC
Experiment: Antiproliferative activity against human HUVEC cells expressing VEGFR2 assessed as reduction in cell growth incubated for 48 hrs by MTT assay
Type: functional, cell-based
Details: not given

Structure (SMILES)	IC50 [µM]
COc1ccc(CC(=O)Nc2ccc3oc(-c4ccccc4Cl)nc3c2)cc1	15.4
Cc1ccc(CC(=O)Nc2ccc3oc(-c4ccccc4Br)nc3c2)cc1	23.6
Cc1ccc(CC(=O)Nc2ccc3[nH]c(-c4ccc(Cl)cc4)nc3c2)cc1	3.21
Cc1ccc(CC(=O)Nc2ccc3oc(-c4ccccc4F)nc3c2)cc1	12.8

Test system: HepG2
Experiment: Antiproliferative activity against human HepG2 cells expressing VEGFR2 assessed as reduction in cell growth incubated for 48 hrs by MTT assay
Type: functional, cell-based
Details: HepG2, 48 h

IC50 [µM]	Structure (SMILES)
30.8	COc1ccc(CC(=O)Nc2ccc3oc(-c4ccccc4Cl)nc3c2)cc1
33.1	Cc1ccc(CC(=O)Nc2ccc3oc(-c4ccccc4Br)nc3c2)cc1
5.56	Cc1ccc(CC(=O)Nc2ccc3[nH]c(-c4ccc(Cl)cc4)nc3c2)cc1
39.2	Cc1ccc(CC(=O)Nc2ccc3oc(-c4ccccc4F)nc3c2)cc1

Test system: A549
Experiment: Antiproliferative activity against human A549 cells expressing EGFR assessed as reduction in cell growth incubated for 48 hrs by MTT assay
Type: functional, cell-based
Details: A549, 48 h

IC50 [µM]	Structure (SMILES)
> 100	COc1ccc(CC(=O)Nc2ccc3oc(-c4ccccc4Cl)nc3c2)cc1
40.2	Cc1ccc(CC(=O)Nc2ccc3oc(-c4ccccc4Br)nc3c2)cc1
59.6	Cc1ccc(CC(=O)Nc2ccc3[nH]c(-c4ccc(Cl)cc4)nc3c2)cc1
83.3	Cc1ccc(CC(=O)Nc2ccc3oc(-c4ccccc4F)nc3c2)cc1

Test system: MDA-MB-231
Experiment: Antiproliferative activity against human MDA-MB-231 cells expressing EGFR assessed as reduction in cell growth incubated for 48 hrs by MTT assay
Type: functional, cell-based
Details: MDA-MB-231, 48 h

IC50 [µM]	Structure (SMILES)
76.2	COc1ccc(CC(=O)Nc2ccc3oc(-c4ccccc4Cl)nc3c2)cc1
74.3	Cc1ccc(CC(=O)Nc2ccc3oc(-c4ccccc4Br)nc3c2)cc1
63.2	Cc1ccc(CC(=O)Nc2ccc3[nH]c(-c4ccc(Cl)cc4)nc3c2)cc1
93.7	Cc1ccc(CC(=O)Nc2ccc3oc(-c4ccccc4F)nc3c2)cc1

Molecular target: T1, Vascular endothelial growth factor receptor 2
Details: at 1 µM
Description: Inhibition of VEGFR2 (unknown origin) using Poly (Glu, Tyr) 4:1 as substrate at 1 uM preincubated with substrate followed by enzyme challenge for 1 hr by ELISA relative to control

inhibition [%]	Structure (SMILES)
90.1	COc1ccc(CC(=O)Nc2ccc3oc(-c4ccccc4Cl)nc3c2)cc1
89.1	Cc1ccc(CC(=O)Nc2ccc3oc(-c4ccccc4Br)nc3c2)cc1
100	Cc1ccc(CC(=O)Nc2ccc3[nH]c(-c4ccc(Cl)cc4)nc3c2)cc1
97.3	Cc1ccc(CC(=O)Nc2ccc3oc(-c4ccccc4F)nc3c2)cc1
